From patent US20240254129A1, “HETEROCYCLIC COMPOUNDS AND USES THEREOF” (Kumquat Biosciences Inc., priority 2021, published 2024)
pIC50: −log10 of the molar value.

Tests used:
[1] = molecular target: GST-tagged K-Ras mutant / His-tagged hSOS1 (Homo sapiens, UniProt P01116); test: HTRF assay, K-Ras mutant / SOS1 interaction; assay type: binding; settings: compound nos. 401-703; read-out: IC50 against mutant Kras
Outline: (§1)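 Buffer ~5 mM HEPES pH 7.4, ~150 mM NaCl, ~1 mM DTT, 0.05% BSA, 0.0025% Igepal. Cpd in DMSO + Ras/donor mix + SOS1/acceptor mix; ≥10 min; HTRF 665/620 ratio → IC50.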

wildtype Kras / hSOS1 = molecular target: T1, wildtype Kras / hSOS1 (Homo sapiens, UniProt P01116); test: HTRF assay, wildtype Kras / SOS1 interaction; assay type: binding; settings: compound nos. 401-703; read-out: IC50 against wildtype Kras
T1 construct: made in house; host or cells: E. coli BL21 (DE3)
Outline: as §1

T1 sequence (P01116 1-188 isoform P01116-2): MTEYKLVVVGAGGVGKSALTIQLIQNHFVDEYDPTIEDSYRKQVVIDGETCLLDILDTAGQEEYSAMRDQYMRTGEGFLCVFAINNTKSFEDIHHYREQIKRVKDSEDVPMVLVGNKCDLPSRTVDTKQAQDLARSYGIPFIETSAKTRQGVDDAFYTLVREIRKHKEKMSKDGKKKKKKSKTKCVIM
GST-tagged K-Ras mutant / His-tagged hSOS1, sequence (P01116 whole entry G12D, form open): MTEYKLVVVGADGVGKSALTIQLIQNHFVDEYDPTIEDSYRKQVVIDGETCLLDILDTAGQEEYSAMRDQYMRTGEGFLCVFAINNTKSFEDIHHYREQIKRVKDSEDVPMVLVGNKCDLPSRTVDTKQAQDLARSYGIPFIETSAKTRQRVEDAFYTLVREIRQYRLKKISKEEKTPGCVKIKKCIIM

Structure (SMILES)	pIC50 [1]	pIC50 (wildtype Kras / hSOS1)
Nc1nc2cc(-c3c(Cl)cc4c(N5CC6CCC(C5)N6)nc(OCC56CCCN5CCC6)nc4c3F)ccc2o1 [Compound 502, 5-(4-(3,8-diazabicyclo-[3.2.1]octan-3-yl)-6-chloro-8-fluoro-2-((tetrahydro-1H-pyrrolizin-7a(5H)-yl)meth-oxy)quinazolin-7-yl)benzo-[d]oxazol-2-amine]	< 6.30	< 6.30
Cc1ncc(COc2nc(N3CCCCCC3)c3cc(Cl)c(-c4cccc5sc(N)nc45)c(F)c3n2)cn1 [Compound 505, 4-(4-(azepan-1-yl)-6-chloro-8-fluoro-2-((2-methylpyr-imidin-5-yl)methoxy)quin-azolin-7-yl)benzo[d]thiazol-2-amine]	< 6.30	< 6.30
CN1CCC[C@H]1COc1nc(N2CCCCC(O)C2)c2cc(Cl)c(-c3cccc4sc(N)nc34)c(F)c2n1 (stereo partly drawn) [Compound 506, 1-(7-(2-aminobenzo[d]thia-zol-4-yl)-6-chloro-8-fluoro-2-(((S)-1-methylpyrrolidin-2-yl)methoxy)quinazolin-4-yl)azepan-3-ol]	> 6.30	< 6.30
C#Cc1c(F)ccc2cc(O)cc(-c3ccc4c(N5CCCC6(CNC6)C5)nc(OC[C@@]56CCCN5C[C@H](F)C6)nc4c3F)c12 [Compound 508, 5-ethynyl-6-fluoro-4-(8-fluoro-2-(((2R,7aS)-2-fluorotetrahydro-1H-pyrrol-izin-7a(5H)-yl)methoxy)-4-(2,6-diazaspiro[3.5]nonan-6-yl)quinazolin-7-yl)naph-thalen-2-ol]	> 6.30	< 6.30
Nc1nc2c(C3CCc4c(nc(OC[C@@]56CCCN5C[C@H](F)C6)nc4N4CCNCC(F)(F)C4)C3)cccc2s1 (stereo partly drawn) [Compound 509, 4-(4-(6,6-difluoro-1,4-diazepan-1-yl)-2-(((2R,7aS)-2-fluorotetrahydro-1H-pyrrolizin-7a(5H)-yl)meth-oxy)-5,6,7,8-tetrahydro-quinazolin-7-yl)benzo[d]-thiazol-2-amine]	< 6.30	< 6.30
Cc1ccc(C#N)cc1-c1c(Cl)cc2c(N3CC4CCC(C3)N4)nc(OCC34CCCN3CCC4)nc2c1F [Compound 510, 3-(4-(3,8-diazabicyclo-[3.2.1]octan-3-yl)-6-chloro-8-fluoro-2-((tetrahydro-1H-pyrrolizin-7a(5H)-yl)meth-oxy)quinazolin-7-yl)-4-methylbenzonitrile]	< 6.30	< 6.30
Oc1cc(N2CCc3nc(OCC45CCCN4CCC5)nc(N4C[C@H]5CC[C@@H](C4)N5)c3CC2)c2ccccc2c1 [Compound 521, 4-(4-((1R,5S)-3,8-diazabicyclo[3.2.1]octan-3-yl)-2-((tetrahydro-1H-pyrrolizin-7a(5H)-yl)methoxy)-5,6,8,9-tetrahydro-7H-pyrimido[4,5-d]azepin-7-yl)naphthalen-2-ol]	< 6.30	< 6.30
CN(C)C/C=C/C(=O)N1CC2(CCCN(c3nc(OC[C@@]45CCCN4C[C@H](F)C5)nc4c(F)c(-c5ccc(F)c6sc(N)c(C#N)c56)c(Cl)cc34)C2)C1 [Compound 522, 2-amino-4-(6-chloro-4-(2-((E)-4-(dimethylamino)but-2-enoyl)-2,6-diazaspiro[3.5]nonan-6-yl)-8-fluoro-2-(((2R,7aS)-2-fluorotetrahydro-1H-pyrrolizin-7a(5H)-yl)methoxy)quinazolin-7-yl)-7-fluorobenzo[b]thiophene-3-carbonitrile]	> 6.30	< 6.30
COC1CCCCN(c2nc(OC[C@@H]3CCCN3C)nc3c(F)c(-c4cccc5sc(N)nc45)c(Cl)cc23)C1 (stereo partly drawn) [Compound 524, 4-(6-chloro-8-fluoro-4-(3-methoxyazepan-1-yl)-2-(((S)-1-methylpyrrolidin-2-yl)methoxy)quinazolin-7-yl)benzo[d]thiazol-2-amine]	> 6.30	< 6.30
Nc1nc2ccccc2n1-c1ccc2c(N3CC4CCC(C3)N4)nc(OCC34CCCN3CCC4)nc2c1F [Compound 525, 1-(4-(3,8-diazabicyclo-[3.2.1]octan-3-yl)-8-fluoro-2-((tetrahydro-1H-pyrrol-izin-7a(5H)-yl)methoxy)-quin-azolin-7-yl)-1H-benzo-[d]imidazol-2-amine]	< 6.30	< 6.30
N#Cc1c(N)sc2c(F)ccc(-c3c(Cl)cc4c(N5CCCC6(CNC6)C5)nc(OC[C@@]56CCCN5C[C@H](F)C6)nc4c3F)c12 [Compound 526, 2-amino-4-(6-chloro-8-fluoro-2-(((2R,7aS)-2-fluorotetrahydro-1H-pyrrol-izin-7a(5H)-yl)methoxy)-4-(2,6-diazaspiro[3.5]nonan-6-yl)quinazolin-7-yl)-7-fluorobenzo[b]thiophene-3-carbonitrile]	> 6.30	< 6.30

Continued, values first:

pIC50 [1]	pIC50 (wildtype Kras / hSOS1)	Structure (SMILES)
< 6.30	< 6.30	CN(C)C1CN(c2nc(N3CC4CCC(C3)N4)c3cc(Cl)c(-c4ccc(F)c5sc(N)nc45)c(F)c3n2)C1 [Compound 503, 4-(4-(3,8-diazabicyclo-[3.2.1]octan-3-yl)-6-chloro-2-(3-(dimethyl-amino)azetidin-1-yl)-8-fluoroquinazolin-7-yl)-7-fluorobenzo[d]thiazol-2-amine]
> 6.30	< 6.30	N#Cc1c(N)sc2c(F)ccc(-c3c(Cl)cc4c(N5CCC6CCC(C5)N6)nc(OC[C@@]56CCCN5C[C@H](F)C6)nc4c3F)c12 (stereo partly drawn) [Compound 504, 4-(4-(3,9-diazabicyclo-[4.2.1]nonan-3-yl)-6-chloro-8-fluoro-2-(((2R,7aS)-2-fluorotetrahydro-1H-pyrrol-izin-7a(5H)-yl)methoxy)-quin-azolin-7-yl)-2-amino-7-fluorobenzo[b]thiophene-3-carbonitrile]
> 6.30	< 6.30	NC(=O)C1COCCN(c2nc(OC[C@@]34CCCN3C[C@H](F)C4)nc3c(F)c(-c4ccc(F)c5sc(N)nc45)c(Cl)cc23)C1 (stereo partly drawn) [Compound 507, 4-(7-(2-amino-7-fluoroben-zo[d]thiazol-4-yl)-6-chloro-8-fluoro-2-(((2R,7aS)-2-fluorotetrahydro-1H-pyrrol-izin-7a(5H)-yl)methoxy)-quinazolin-4-yl)-1,4-oxazepane-6-carboxamide]
> 6.30	< 6.30	Nc1nc2c(-c3c(Cl)cc4c(N5CC6CCC(C5)NC6)nc(OC[C@@]56CCCN5C[C@H](F)C6)nc4c3F)ccc(F)c2s1 (stereo partly drawn) [Compound 511, 4-(4-(3,6-diazabicyclo-[3.2.2]nonan-3-yl)-6-chloro-8-fluoro-2-(((2R,7aS)-2-fluorotetrahydro-1H-pyrrol-izin-7a(5H)-yl)methoxy)-quinazolin-7-yl)-7-fluoro-benzo[d]thiazol-2-amine]
> 6.30	< 6.30	Nc1nc2c(-c3c(Cl)cc4c(N5CC6CCCC(C5)NC6)nc(OC[C@@]56CCCN5C[C@H](F)C6)nc4c3F)ccc(F)c2s1 (stereo partly drawn) [Compound 512, 4-(4-(3,9-diazabicyclo-[3.3.2]decan-3-yl)-6-chloro-8-fluoro-2-(((2R,7aS)-2-fluorotetrahydro-1H-pyrrol-izin-7a(5H)-yl)methoxy)-quinazolin-7-yl)-7-fluoro-benzo[d]thiazol-2-amine]
> 6.30	< 6.30	N#CC1COCCN(c2nc(OCC34CCCN3C[C@H](F)C4)nc3c(F)c(-c4ccc(F)c5sc(N)nc45)c(Cl)cc23)C1 (stereo partly drawn) [Compound 513, 4-(7-(2-amino-7-fluoroben-zo[d]thiazol-4-yl)-6-chloro-8-fluoro-2-(((2R)-2-fluoro-tetrahydro-1H-pyrrolizin-7a(5H)-yl)methoxy)quin-azolin-4-yl)-1,4-oxazepane-6-carbonitrile]
< 6.30	< 6.30	CN(C)C1CN(c2nc(N3CC4CCC(C3)N4)c3cc(CCC#N)c(-c4ccc(F)c5sc(N)nc45)c(F)c3n2)C1 [Compound 516, 3-(7-(2-amino-7-fluoroben-zo[d]thiazol-4-yl)-4-(3,8-diazabicyclo[3.2.1]octan-3-yl)-2-(3-(dimethylamino)-azetidin-1-yl)-8-fluoroquin-azolin-6-yl)propanenitrile]
> 6.30	< 6.30	Nc1nc2c(-c3c(Cl)cc4c(N5CC6CCC(CO)(C5)N6)nc(OC[C@@]56CCCN5C[C@H](F)C6)nc4c3F)ccc(F)c2s1 (stereo partly drawn) [Compound 518, (3-(7-(2-amino-7-fluoroben-zo-[d]thiazol-4-yl)-6-chloro-8-fluoro-2-(((2R,7aS)-2-fluorotetrahydro-1H-pyrrol-izin-7a(5H)-yl)methoxy)-quinazolin-4-yl)-3,8-diaza-bicyclo[3.2.1]octan-1-yl)-methanol]
> 6.30	< 6.30	CN(C)CC1(COc2nc(N3CC4CCC(C3)N4)c3cc(Cl)c(-c4ccc(F)c5sc(N)nc45)c(F)c3n2)CC1 [Compound 523, 4-(4-(3,8-diazabicyclo-[3.2.1]octan-3-yl)-6-chloro-2-((1-((dimethylamino)-methyl)cyclopropyl)meth-oxy)-8-fluoroquinazolin-7-yl)-7-fluorobenzo[d]thiazol-2-amine]
< 6.30	< 6.30	Nc1c(-c2c(Cl)cc3c(N4CC5CCC(C4)N5)nc(OCC45CCCN4CCC5)nc3c2F)cccc1C(F)(F)F [Compound 527, 2-(4-(3,8-diazabicyclo-[3.2.1]octan-3-yl)-6-chloro-8-fluoro-2-((tetrahydro-1H-pyrrolizin-7a(5H)-yl)meth-oxy)quinazolin-7-yl)-6-(trifluoromethyl)aniline]
> 6.30	< 6.30	Nc1nc2c(-c3c(Cl)cc4c(N5C[C@H]6CCNCC[C@H]6C5)nc(OC[C@@]56CCCN5C[C@H](F)C6)nc4c3F)ccc(F)c2s1 [Compound 528, 4-(6-chloro-8-fluoro-2-(((2R,7aS)-2-fluorotetra-hydro-1H-pyrrolizin-7a(5H)-yl)methoxy)-4-((3aR,8aS)-octahydropyr-rolo[3,4-d]azepin-2(1H)-yl)quinazolin-7-yl)-7-fluorobenzo[d]thiazol-2-amine]
